Data on 1 compound can be found in ChEMBL document CHEMBL2346639, “A new dehydroabietic acid-based arylamine fluorescent probe: Synthesis, structure analysis and in vitro biodiagnose function” (Bioorg Med Chem Lett, 2013).

In data set [1] the test system is SMMC-7721. The data set can be described thus: Cellular uptake in human SMMC7721 cells after 4 hrs by fluorescence microscopic analysis. Type of data set: ADME, cell-based. As to conditions: smmc-7721, 4 h; call rule not given here.
Data set [2] can be described thus: Cellular uptake in human HeLa cells cytoplasm after 4 hrs by fluorescence microscopic analysis. Type of data set: ADME, cell-based.
Data set [3] can be described thus: Cellular uptake in human A549 cells cytoplasm after 4 hrs by fluorescence microscopic analysis. It counts as ADME, cell-based. The conditions noted are these: a549, 4 h.
Data set [4] can be described thus: Photostability of the compound in water at 10 uM measured 30 mins after UV-irradiation by fluorescence spectra analysis. Type of data set: physicochemical. The conditions noted are these: buffer, 0.5 h.
A short description of data set [5]: Cytotoxicity against human SGC7901 cells assessed as cell survival at 1 uM after 24 hrs by MTT assay relative to control. Type of data set: cell-based. The conditions noted are these: SGC-7901 cells, read-out: Survival. Background: Tetrazolium assays rely on reduction of a dye to a coloured formazan, in cell work by metabolically active cells.
The test system of data set [6] is A549. The data set can be described thus: Cellular uptake in human A549 cells after 4 hrs by fluorescence microscopic analysis. As to conditions: a549, 4 h. It counts as ADME, cell-based.
A short description of data set [7]: Photostability of the compound in dichloromethane at 1 x 10^-6 M measured after UV-irradiation by fluorescence spectra analysis. As to conditions: 1 µM. It counts as physicochemical.
Data set [8] in a line: Cytotoxicity against human SMMC7721 cells assessed as cell survival at 1 uM after 24 hrs by MTT assay relative to control. Type of data set: cell-based. The conditions noted are these: SMMC-7721 cells, read-out: Survival.
Data set [9] has as its system HeLa. As to the kind of experiment: Cellular uptake in human HeLa cells after 4 hrs by fluorescence microscopic analysis. It counts as ADME, cell-based.
The nature of data set [10]: Photostability of the compound in DMSO at 1 x 10^-6 M measured after UV-irradiation by fluorescence spectra analysis. The conditions noted are these: 1 µM. Type of data set: physicochemical.
A short description of data set [11]: Cytotoxicity against human A549 cells assessed as cell survival at 1 uM after 24 hrs by MTT assay relative to control. It counts as cell-based. The conditions noted are these: read-out: Survival.
A short description of data set [12]: Cytotoxicity against human HeLa cells assessed as cell survival at 1 uM after 24 hrs by MTT assay relative to control. Type of data set: cell-based. As to conditions: read-out: Survival.
Data set [13] is described as follows: Cellular uptake in human SMMC7721 cells cytoplasm after 4 hrs by fluorescence microscopic analysis. It counts as ADME, cell-based. As to conditions: smmc-7721, 4 h.
A short description of data set [14]: Solubility of the compound in water. Type of data set: physicochemical.
For data set [15], the system named is SGC-7901. The data set can be described thus: Cellular uptake in human SGC7901 cells after 4 hrs by fluorescence microscopic analysis. Type of data set: ADME, cell-based. The conditions noted are these: sgc-7901, 4 h.
The nature of data set [16]: Photostability of the compound in methanol at 1 x 10^-6 M measured after UV-irradiation by fluorescence spectra analysis. It counts as physicochemical. The conditions noted are these: 1 µM.
Data set [17] concerns A549. As to the kind of experiment: Cytotoxicity against human A549 cells assessed as effect on cell survival at 5 to 25 uM after 24 hrs by MTT assay. It counts as cell-based. As to conditions: a549, 24 h.
A short description of data set [18]: Cellular uptake in human SGC7901 cells cytoplasm after 4 hrs by fluorescence microscopic analysis. Type of data set: ADME, cell-based. The conditions noted are these: sgc-7901, 4 h.
Data set [19] is described as follows: Photostability of the compound in water at 1 x 10^-6 M measured after UV-irradiation by fluorescence spectra analysis. Type of data set: physicochemical. The conditions noted are these: buffer, 1 µM.

Consider `COC(=O)[C@]1(C)CCC[C@]2(C)c3ccc(Nc4cccc5ccccc45)cc3CC[C@@H]12`, for which the Drug uptake result in data set [1], in data set [2], in data set [3], in data set [6], in data set [9] and in [13] was “Active” in each case. Besides, the Drug uptake entry in data set [15] and in [18] was “Active” in each case. In addition, the Stability entry in data set [4] was “Stable”; in data set [7], “Unstable”; in data set [10] it was “Unstable”; in data set [16] it was “Unstable”; in data set [19] it was “Stable”. Further, the viability at 24 h, 1 µM in [5] was found to be 94.5%; in [8] it was 96%; in data set [11], 93.1%; in data set [12], 97.3%. Further, the solubility (commonly how much of the substance goes into solution per volume) in data set [14] is more than 15 µM. Moreover, the Activity entry in [17] is recorded as “Non-toxic”.
